Measurements: ChEMBL document CHEMBL3862033 (J Med Chem, 2016)

Columns and labels:
Adenosine receptor A1 = target: T1, Adenosine receptor A1 (Homo sapiens, UniProt P30542); test: Displacement of [3H]N6-phenylisopropyladenosine from recombinant human A1AR expressed in CHO cell membranes after 60 mins by liquid scintillation counting method
T1 sequence (P30542 whole entry): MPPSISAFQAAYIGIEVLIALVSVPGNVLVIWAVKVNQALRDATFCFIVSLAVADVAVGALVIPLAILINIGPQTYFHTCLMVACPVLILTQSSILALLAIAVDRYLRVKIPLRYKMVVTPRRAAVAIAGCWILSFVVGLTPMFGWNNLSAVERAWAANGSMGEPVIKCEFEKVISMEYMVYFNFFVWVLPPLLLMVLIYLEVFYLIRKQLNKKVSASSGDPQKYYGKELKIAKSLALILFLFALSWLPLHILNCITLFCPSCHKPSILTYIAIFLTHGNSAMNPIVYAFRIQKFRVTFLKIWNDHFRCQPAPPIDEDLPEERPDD

[1] = target: T2, 5-hydroxytryptamine receptor 2A (Homo sapiens, UniProt P28223); test: Displacement of [3H]ketanserin from human 5-HT2A receptor expressed in HEK-T cell membranes at 10 uM incubated for 90 mins under dark condition by microbeta scintillation counting method relative to control
T2 sequence (P28223 whole entry): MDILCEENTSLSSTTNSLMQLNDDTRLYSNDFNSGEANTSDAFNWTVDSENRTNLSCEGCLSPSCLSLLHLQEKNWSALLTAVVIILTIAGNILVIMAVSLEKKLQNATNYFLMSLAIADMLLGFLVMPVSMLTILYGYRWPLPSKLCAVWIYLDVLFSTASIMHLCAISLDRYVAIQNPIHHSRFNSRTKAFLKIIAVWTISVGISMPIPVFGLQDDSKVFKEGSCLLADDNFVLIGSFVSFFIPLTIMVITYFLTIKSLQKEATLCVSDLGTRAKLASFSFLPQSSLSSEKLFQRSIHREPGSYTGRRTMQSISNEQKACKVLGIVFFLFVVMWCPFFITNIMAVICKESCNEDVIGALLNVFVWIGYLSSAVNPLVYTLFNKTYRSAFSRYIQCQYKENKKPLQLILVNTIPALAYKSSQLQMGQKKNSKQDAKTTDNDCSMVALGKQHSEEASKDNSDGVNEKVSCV

[2] = target: 5-hydroxytryptamine receptor 5A (Homo sapiens) (UniProt P47898); test: Displacement of [3H]LSD from human 5-HT5A receptor expressed in Flp-In-CHO cell membranes incubated for 90 mins under dark condition by microbeta scintillation counting method relative to control; set-up: concentration or dose not given beside the values
Sequence of 5-hydroxytryptamine receptor 5A (Homo sapiens) (P47898 whole entry): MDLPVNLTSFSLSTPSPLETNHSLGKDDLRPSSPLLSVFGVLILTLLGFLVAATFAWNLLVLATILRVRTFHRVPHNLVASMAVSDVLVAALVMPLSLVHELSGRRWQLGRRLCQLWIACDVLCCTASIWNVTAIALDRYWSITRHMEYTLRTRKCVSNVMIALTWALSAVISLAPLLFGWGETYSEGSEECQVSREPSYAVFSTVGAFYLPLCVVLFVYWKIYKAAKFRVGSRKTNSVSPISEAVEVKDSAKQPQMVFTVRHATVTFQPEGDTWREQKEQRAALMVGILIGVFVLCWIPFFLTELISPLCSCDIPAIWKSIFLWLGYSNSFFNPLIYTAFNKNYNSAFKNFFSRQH

[3] = target: 5-hydroxytryptamine receptor 4 (Homo sapiens) (UniProt Q13639); test: Displacement of [3H]GR113808 from human 5-HT4 receptor at 10 uM incubated for 90 mins under dark condition by microbeta scintillation counting method relative to control
Sequence of 5-hydroxytryptamine receptor 4 (Homo sapiens) (Q13639 whole entry): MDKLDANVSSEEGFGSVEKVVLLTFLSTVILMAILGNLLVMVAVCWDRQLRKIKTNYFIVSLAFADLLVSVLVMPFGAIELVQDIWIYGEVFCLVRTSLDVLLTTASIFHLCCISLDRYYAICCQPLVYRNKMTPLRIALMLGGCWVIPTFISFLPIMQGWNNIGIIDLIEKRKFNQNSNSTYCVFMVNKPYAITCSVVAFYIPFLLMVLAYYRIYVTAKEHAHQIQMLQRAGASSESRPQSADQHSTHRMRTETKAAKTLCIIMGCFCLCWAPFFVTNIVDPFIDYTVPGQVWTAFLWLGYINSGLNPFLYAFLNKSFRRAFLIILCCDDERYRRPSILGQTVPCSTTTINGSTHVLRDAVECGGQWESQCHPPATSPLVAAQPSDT

[4] = target: T2, 5-hydroxytryptamine receptor 2A; test: Displacement of [3H]ketanserin from human 5-HT2A receptor expressed in HEK-T cell membranes incubated for 90 mins under dark condition by microbeta scintillation counting method
[5] = target: T3, 5-hydroxytryptamine receptor 2B (Homo sapiens, UniProt P41595); settings: HEK293, at 10 µM
T3 sequence (P41595 whole entry): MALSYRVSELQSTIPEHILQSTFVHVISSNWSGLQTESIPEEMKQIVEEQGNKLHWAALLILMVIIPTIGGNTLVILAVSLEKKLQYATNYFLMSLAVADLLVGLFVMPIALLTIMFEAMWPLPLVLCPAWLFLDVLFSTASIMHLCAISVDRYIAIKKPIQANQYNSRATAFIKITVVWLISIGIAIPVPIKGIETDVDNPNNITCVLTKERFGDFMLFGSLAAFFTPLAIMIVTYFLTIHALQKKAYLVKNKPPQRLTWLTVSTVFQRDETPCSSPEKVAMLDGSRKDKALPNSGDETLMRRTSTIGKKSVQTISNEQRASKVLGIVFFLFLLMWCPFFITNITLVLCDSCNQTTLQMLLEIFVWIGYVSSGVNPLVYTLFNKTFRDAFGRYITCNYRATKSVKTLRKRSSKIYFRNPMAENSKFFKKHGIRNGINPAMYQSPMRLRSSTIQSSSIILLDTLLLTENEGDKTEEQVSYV

Adenosine receptor A2a = Adenosine receptor A2a (Homo sapiens, UniProt P29274); test: Displacement of [3 H]2-[p-(2-carboxyethyl)phenyl-ethylamino]-5'-N-ethylcarboxamidoadenosine from recombinant human adenosine receptor A2A expressed in HEK293 cell membranes at 10 uM after 60 mins by liquid scintillation counting method relative to control
Sequence of Adenosine receptor A2a (P29274 whole entry): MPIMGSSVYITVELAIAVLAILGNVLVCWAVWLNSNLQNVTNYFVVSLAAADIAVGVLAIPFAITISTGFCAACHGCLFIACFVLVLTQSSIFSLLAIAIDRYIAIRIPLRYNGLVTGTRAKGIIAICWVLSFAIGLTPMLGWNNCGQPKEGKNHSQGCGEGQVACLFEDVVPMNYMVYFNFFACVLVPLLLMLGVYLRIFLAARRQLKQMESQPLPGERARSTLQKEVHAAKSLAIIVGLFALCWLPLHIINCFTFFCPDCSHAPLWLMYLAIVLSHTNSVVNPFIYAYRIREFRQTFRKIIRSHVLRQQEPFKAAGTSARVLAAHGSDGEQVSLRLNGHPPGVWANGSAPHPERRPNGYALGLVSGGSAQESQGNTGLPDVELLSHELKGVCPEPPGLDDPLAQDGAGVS

[6] = target: 5-hydroxytryptamine receptor 1B (Homo sapiens) (UniProt P28222); test: Displacement of [3H]5-CT from human 5-HT1BR expressed in HEK cell membranes at 10 uM incubated for 90 mins under dark condition by microbeta scintillation counting method relative to control; settings: HEK293
Sequence of 5-hydroxytryptamine receptor 1B (Homo sapiens) (P28222 whole entry): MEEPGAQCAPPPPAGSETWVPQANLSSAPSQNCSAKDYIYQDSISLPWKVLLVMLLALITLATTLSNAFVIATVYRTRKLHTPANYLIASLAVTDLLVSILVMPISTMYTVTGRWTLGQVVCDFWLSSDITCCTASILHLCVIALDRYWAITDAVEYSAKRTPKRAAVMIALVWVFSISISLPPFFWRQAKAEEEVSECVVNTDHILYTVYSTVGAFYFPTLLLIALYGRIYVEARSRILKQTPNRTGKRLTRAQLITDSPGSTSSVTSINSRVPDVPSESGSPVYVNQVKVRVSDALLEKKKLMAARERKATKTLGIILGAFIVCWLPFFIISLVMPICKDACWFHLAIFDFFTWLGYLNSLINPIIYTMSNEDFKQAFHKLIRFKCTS

[7] = target: T4, 5-hydroxytryptamine receptor 2C (Homo sapiens) (UniProt P28335); test: Displacement of [3H]mesulergine from human 5-HT2CR expressed in Flp-In HEK cell membranes at 10 uM incubated for 90 mins under dark condition by microbeta scintillation counting method relative to control; settings: HEK293
T4 sequence (whole entry): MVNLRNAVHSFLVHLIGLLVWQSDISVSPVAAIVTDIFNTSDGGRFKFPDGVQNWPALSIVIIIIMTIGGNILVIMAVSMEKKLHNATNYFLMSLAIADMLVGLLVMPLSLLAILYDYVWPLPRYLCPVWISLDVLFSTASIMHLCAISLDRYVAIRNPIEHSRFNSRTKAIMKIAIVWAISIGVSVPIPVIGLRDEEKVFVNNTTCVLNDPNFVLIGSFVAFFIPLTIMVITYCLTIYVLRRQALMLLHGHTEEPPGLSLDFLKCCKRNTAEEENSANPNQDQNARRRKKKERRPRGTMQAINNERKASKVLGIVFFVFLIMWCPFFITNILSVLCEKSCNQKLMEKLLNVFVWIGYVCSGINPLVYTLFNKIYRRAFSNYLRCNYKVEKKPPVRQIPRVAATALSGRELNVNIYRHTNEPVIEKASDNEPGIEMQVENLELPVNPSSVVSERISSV

[8] = target: T5, 5-hydroxytryptamine receptor 2C (Homo sapiens, UniProt P28335); test: Displacement of [3H]mesulergine from human 5-HT2CR expressed in Flp-In HEK cell membranes incubated for 90 mins under dark condition by microbeta scintillation counting method; set-up: species or system HEK293
T5 sequence (P28335 whole entry): T4 sequence (whole entry)

[9] = target: T3, 5-hydroxytryptamine receptor 2B; test: biochemical; type: cell-based, HEK293
[10] = target: 5-hydroxytryptamine receptor 7 (Homo sapiens) (UniProt P34969); test: Displacement of [3H]LSD from human 5-HT7A receptor expressed in HEK cell membranes at 10 uM incubated for 90 mins under dark condition by microbeta scintillation counting method relative to control; settings: HEK293
Sequence of 5-hydroxytryptamine receptor 7 (Homo sapiens) (P34969 whole entry): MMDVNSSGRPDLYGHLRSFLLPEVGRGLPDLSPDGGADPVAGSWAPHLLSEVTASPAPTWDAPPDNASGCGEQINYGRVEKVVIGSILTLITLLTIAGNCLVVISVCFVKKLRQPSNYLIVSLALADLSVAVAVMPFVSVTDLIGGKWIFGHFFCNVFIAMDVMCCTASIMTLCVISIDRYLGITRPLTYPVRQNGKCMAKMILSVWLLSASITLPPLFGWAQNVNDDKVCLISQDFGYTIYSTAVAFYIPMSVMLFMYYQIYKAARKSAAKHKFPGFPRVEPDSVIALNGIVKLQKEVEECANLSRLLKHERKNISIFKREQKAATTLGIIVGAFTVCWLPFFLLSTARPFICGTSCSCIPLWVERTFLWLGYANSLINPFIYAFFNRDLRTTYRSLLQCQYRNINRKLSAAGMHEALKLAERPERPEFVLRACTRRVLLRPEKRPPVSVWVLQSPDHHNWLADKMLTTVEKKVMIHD

[11] = target: T6, 5-hydroxytryptamine receptor 1A (Homo sapiens) (UniProt P08908); test: Displacement of [3H]WAY100635 from human 5-HT1AR expressed in CHO cell membranes at 10 uM incubated for 90 mins under dark condition by microbeta scintillation counting method relative to control
T6 sequence (whole entry): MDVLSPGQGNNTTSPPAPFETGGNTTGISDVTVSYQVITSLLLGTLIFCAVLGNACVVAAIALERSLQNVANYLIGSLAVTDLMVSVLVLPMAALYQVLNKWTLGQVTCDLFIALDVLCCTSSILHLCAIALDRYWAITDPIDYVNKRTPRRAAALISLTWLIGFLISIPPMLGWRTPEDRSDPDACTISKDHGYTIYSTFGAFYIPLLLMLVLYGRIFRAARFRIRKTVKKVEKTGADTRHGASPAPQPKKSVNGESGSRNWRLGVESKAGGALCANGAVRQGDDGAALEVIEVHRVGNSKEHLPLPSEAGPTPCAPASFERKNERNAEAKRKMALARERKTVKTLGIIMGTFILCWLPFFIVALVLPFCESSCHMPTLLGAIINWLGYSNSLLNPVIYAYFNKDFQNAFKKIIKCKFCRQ

[12] = target: 5-hydroxytryptamine receptor 1E (Homo sapiens) (UniProt P28566); test: Displacement of [3H]5-HT from human 5-HT1E receptor expressed in HEK cell membranes at 10 uM incubated for 90 mins under dark condition by microbeta scintillation counting method relative to control; settings: HEK293
Sequence of 5-hydroxytryptamine receptor 1E (Homo sapiens) (P28566 whole entry): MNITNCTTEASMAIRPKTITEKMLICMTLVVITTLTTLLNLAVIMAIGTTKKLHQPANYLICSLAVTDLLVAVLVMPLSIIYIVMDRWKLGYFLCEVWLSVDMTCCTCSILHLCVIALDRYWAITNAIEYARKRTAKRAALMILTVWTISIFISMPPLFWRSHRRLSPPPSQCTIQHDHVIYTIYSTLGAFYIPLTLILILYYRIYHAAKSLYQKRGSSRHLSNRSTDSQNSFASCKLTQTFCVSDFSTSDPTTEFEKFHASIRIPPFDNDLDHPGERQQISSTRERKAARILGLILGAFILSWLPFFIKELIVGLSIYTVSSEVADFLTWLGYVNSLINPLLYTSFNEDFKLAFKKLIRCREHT

[13] = target: 5-hydroxytryptamine receptor 1D (Homo sapiens) (UniProt P28221); test: Displacement of [3H]5-CT from human 5-HT1D receptor expressed in HEK-T cell membranes at 10 uM incubated for 90 mins under dark condition by microbeta scintillation counting method relative to control
Sequence of 5-hydroxytryptamine receptor 1D (Homo sapiens) (P28221 whole entry): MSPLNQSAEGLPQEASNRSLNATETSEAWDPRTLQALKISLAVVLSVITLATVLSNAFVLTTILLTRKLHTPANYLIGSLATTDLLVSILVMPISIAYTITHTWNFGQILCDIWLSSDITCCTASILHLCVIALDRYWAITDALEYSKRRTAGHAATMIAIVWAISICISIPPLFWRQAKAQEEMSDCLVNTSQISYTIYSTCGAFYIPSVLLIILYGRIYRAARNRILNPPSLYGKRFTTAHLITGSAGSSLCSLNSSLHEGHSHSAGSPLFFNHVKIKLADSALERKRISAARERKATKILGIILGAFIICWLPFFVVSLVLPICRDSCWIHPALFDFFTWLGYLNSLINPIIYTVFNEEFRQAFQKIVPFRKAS

[14] = target: 5-hydroxytryptamine receptor 3A (Homo sapiens, UniProt P46098); test: Displacement of [3H]GR65630 from human 5-HT3 receptor expressed in HEK-T cell membranes incubated for 90 mins under dark condition by microbeta scintillation counting method
[15] = target: 5-hydroxytryptamine receptor 6 (Homo sapiens) (UniProt P50406); test: Displacement of [3H]LSD from human 5-HT6 receptor expressed in HEK cell membranes at 10 uM incubated for 90 mins under dark condition by microbeta scintillation counting method relative to control; settings: HEK293
Sequence of 5-hydroxytryptamine receptor 6 (Homo sapiens) (P50406 whole entry): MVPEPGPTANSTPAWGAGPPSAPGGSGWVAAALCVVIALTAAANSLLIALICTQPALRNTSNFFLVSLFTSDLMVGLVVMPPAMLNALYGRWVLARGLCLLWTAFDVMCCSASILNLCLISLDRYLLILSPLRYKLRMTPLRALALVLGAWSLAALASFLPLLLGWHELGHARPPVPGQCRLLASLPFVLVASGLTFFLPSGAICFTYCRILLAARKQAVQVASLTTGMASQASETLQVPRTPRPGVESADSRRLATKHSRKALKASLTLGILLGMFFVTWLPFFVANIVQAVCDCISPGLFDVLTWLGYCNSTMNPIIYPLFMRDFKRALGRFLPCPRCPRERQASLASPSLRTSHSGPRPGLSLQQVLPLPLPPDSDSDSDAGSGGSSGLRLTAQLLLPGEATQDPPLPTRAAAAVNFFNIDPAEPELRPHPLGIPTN

[16] = target: Adenosine receptor A3 (Homo sapiens) (UniProt P0DMS8); test: Displacement of [125l]N 6-(4-amino-3-iodobenzyl)adenosine-5'-N-methyluronamide from recombinant human A3AR expressed in CHO cell membranes at 10 uM after 60 mins by gamma counting method relative to control
[17] = target: T7, Adenosine receptor A1 (Homo sapiens) (UniProt P30542); test: Displacement of [3H]N6-phenylisopropyladenosine from recombinant human A1AR expressed in CHO cell membranes at 10 uM after 60 mins by liquid scintillation counting method relative to control
T7 sequence (whole entry): T1 sequence (P30542 whole entry)

[18] = target: T8, 5-hydroxytryptamine receptor 3A (Homo sapiens) (UniProt P46098); test: Displacement of [3H]GR65630 from human 5-HT3 receptor expressed in HEK-T cell membranes at 10 uM incubated for 90 mins under dark condition by microbeta scintillation counting method relative to control
T8 sequence (whole entry): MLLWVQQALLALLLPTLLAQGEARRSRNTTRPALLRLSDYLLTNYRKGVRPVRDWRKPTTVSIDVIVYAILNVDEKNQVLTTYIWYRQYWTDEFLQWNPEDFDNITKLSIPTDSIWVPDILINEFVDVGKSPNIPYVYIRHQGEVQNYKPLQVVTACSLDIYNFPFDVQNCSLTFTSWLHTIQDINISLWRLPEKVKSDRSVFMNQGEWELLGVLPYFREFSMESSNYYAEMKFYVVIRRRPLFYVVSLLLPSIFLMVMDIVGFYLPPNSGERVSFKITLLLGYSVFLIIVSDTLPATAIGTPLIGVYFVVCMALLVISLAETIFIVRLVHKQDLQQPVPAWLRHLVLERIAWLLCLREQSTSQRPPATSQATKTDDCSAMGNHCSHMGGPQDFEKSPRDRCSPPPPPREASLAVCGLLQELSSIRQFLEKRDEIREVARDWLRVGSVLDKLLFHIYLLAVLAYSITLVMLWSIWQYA

Adenosine receptor A3 = target: T9, Adenosine receptor A3 (Homo sapiens, UniProt P0DMS8); test: Displacement of [125l]N 6-(4-amino-3-iodobenzyl)adenosine-5'-N-methyluronamide from recombinant human A3AR expressed in CHO cell membranes after 60 mins by gamma counting method
T9 sequence (P0DMS8 whole entry): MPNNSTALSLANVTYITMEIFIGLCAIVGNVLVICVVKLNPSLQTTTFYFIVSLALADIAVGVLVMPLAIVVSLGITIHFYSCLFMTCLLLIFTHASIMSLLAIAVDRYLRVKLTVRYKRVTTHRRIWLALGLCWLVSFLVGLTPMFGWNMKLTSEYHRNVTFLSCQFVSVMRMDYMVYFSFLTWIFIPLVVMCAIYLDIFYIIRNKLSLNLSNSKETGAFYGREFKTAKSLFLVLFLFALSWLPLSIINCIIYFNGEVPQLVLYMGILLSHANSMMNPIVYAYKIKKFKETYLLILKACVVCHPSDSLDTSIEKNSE

[19] = Displacement of [3H]DTG from sigma2 receptor in rat PC12 cells after 90 mins by microbeta scintillation counting method; type: cell-based; settings: pc-12
Translocator protein = Translocator protein (Homo sapiens, UniProt P30536); test: Inhibition of TSPO (unknown origin)
Sequence of Translocator protein (P30536 whole entry): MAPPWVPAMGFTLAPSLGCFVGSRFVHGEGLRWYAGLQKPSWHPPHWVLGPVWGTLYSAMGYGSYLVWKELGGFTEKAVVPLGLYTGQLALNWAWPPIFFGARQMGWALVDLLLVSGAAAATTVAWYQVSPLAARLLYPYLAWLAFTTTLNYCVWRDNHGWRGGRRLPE

Row | inhibition [17] [%] | inhibition [18] [%] | Compound | Ki (Adenosine receptor A1) [µM] | inhibition [1] [%] | inhibition [2] [%] | inhibition [3] [%] | Ki [4] [µM] | inhibition [5] [%] | inhibition (Adenosine receptor A2a) [%] | inhibition [6] [%] | inhibition [7] [%] | Ki [8] [µM] | Ki [9] [µM] | inhibition [10] [%] | inhibition [11] [%] | inhibition [12] [%] | inhibition [13] [%] | inhibition [15] [%] | Ki (Adenosine receptor A3) [µM] | further results
1 |  |  | O[C@@H]1[C@H](O)[C@@H]2C[C@@H]2[C@H]1n1cnc2c(NCc3cccc(Cl)c3)nc(Cl)nc21 | 1.6 | < 10 | < 50 | < 50 | > 10 | > 50 | > 50 | < 50 | > 50 | 4.1 | 2.39 | < 50 | < 50 | < 50 | < 50 | < 50 |  | Ki [14]: 3.26 µM
2 | < 10 | < 50 | CCOC(=O)[C@@]12C[C@@H]1[C@@H](n1cnc3c(N(C)C)nc(Cl)nc31)[C@H](O)[C@@H]2O |  | < 10 | < 50 | < 50 | > 10 | > 50 | 13 | < 50 | > 50 | 1.35 | 0.671 | < 50 | < 50 | < 50 | < 50 | < 50 |  | inhibition [16]: 30%
3 | 25 | < 50 | CNC(=O)[C@@]12C[C@@H]1[C@@H](n1cnc3c(N(C)C)nc(C#Cc4ccc(Cl)s4)nc31)[C@H](O)[C@@H]2O |  | 27 | < 50 | < 50 | > 10 | < 10 | 15 | < 50 | > 50 | 8.5 |  | < 50 | < 50 | < 50 | < 50 | < 50 | 0.0235 | Ki [19]: 7.3 µM

Row | Compound | inhibition [17] [%] | inhibition [18] [%] | Ki (Adenosine receptor A1) [µM] | inhibition [1] [%] | inhibition [2] [%] | inhibition [3] [%] | Ki [4] [µM] | inhibition [5] [%] | inhibition (Adenosine receptor A2a) [%] | inhibition [6] [%] | inhibition [7] [%] | Ki [8] [µM] | Ki [9] [µM] | inhibition [10] [%] | inhibition [11] [%] | inhibition [12] [%] | inhibition [13] [%] | inhibition [15] [%] | Ki (Adenosine receptor A3) [µM] | further results
4 | CCCOC(=O)[C@@]12C[C@@H]1[C@@H](n1cnc3c(NC(C4CC4)C4CC4)nc(Cl)nc31)[C@H](O)[C@@H]2O |  | < 50 | 0.44 | < 10 | < 50 | < 50 | > 10 | > 50 | 19 | < 50 | > 50 | 0.205 | 0.045 | < 50 | < 50 | < 50 | < 50 | < 50 | 0.499 | Ki (Translocator protein): 2.2 µM
